Data reported in patent publication US20250034127A1, “AUTOPHAGY INDUCING COMPOUNDS AND USES THEREOF, IN PARTICULAR FOR DISEASES OF THE CNS” (Samsara Therapeutics Inc., priority 2021, published 2025).

What was measured:
[1] = tested on: Human osteosarcoma U2OS cells; assay: Assay to measure lysosome and autolysosome (acidic vesicle) formation in U2OS cells; format: cell-based; conditions: for activation at 0.8 µM: Homo sapiens, concentration of 0.8 μM, read-out: Activity (percentage increase in acidic vesicle formation over the DMSO-treated control); for acidic vesicle formation relative to a DMSO-treated control: concentration of 10 μM, 24 hours
Experimental: Lysosomes play a fundamental role in the autophagic pathway by fusing with autophagosomes and creating ‘autolysosomes’ in order to digest their contents. Stimulation of lysosome and autolysosome formation by a compound is indicative of a stimulation of autophagy. The ability of compounds to stimulate lysosome and autolysosome formation, and thus autophagy, in live cells was assessed via fluorescent microscopy using various fluorescent stains for labelling and tracking acidic organelles (including lysosomes and autolysosomes) such as: LysoView™ 650 (70059 and 70059-T, Biotium), Lyso View™633 (70058 and 70058-T, Biotium) and LysoTracker™ Deep Red (L12492, ThermoFisher Scientific). The cellular phenotype was quantitatively assessed for the induction of acidic vesicle formation and compared to a non-treated control, thus providing a measure of the ability of the compound under investigation to stimulate autophagy.
Representative procedure using LysoView™ 633 dye or LysoTracker™ Deep Red dye: Human osteosarcoma U2OS cells (40,000 cells/well) were seeded in a 24 well glass bottom plate (Sensoplate, Greiner Bio-One) and were incubated overnight in a humidified atmosphere at 37° C. and 5% CO2. Cells were grown in DMEM (Gibco) supplemented with 10% Fetal Bovine Serum (FBS) and 100 units/ml penicillin and 100 μg/ml streptomycin (Invitrogen). After the attachment period, cells were treated with different compounds of interest (at various concentrations in DMSO) or DMSO (non-treated control) in cell culture medium and were incubated for 24 hours. Compound-containing medium was removed and cells were incubated with pre-warmed cell culture medium containing 1× Lyso View™ 633 (70058 and 70058-T, Biotium) or 50 nM LysoTracker™ Deep Red (L12492, ThermoFisher Scientific) for 45 minutes at 37° C. Finally, cell nuclei were stained for 10 minutes using Hoechst 33342 (1 μg/mL) and then the medium was replaced with fresh medium. The 24 well plate was then fitted into a heated stage on the microscope and cells maintained at 37° C. Images were captured using appropriate filter set for Cy5 and DAPI detection with the EVOS M7000 Microscope (ThermoFisher Scientific). The cellular phenotype was visually assessed for the induction of acidic vesicle formation relative to the non-treated control; multiple images were acquired and analysed using ImageJ or Cell Profiler.

SH-SY5Y cells = assay: Acidic vesicle formation in SH-SY5Y cells (LysoTracker Deep Red); format: cell-based, human; conditions: 24 hours, relative to DMSO-treated control
Experimental: This is evidence for significant stimulation of autophagy by this compound under these conditions. SH-SY5Y cells are a human-derived neuroblastoma cell line widely used in in vitro models of neurological disorders (Ross R A, Spengler B A, Biedler J L. Coordinate morphological and biochemical interconversion of human neuroblastoma cells. J Natl Cancer Inst. 1983 October; 71 (4): 741-7. PMID: 6137586).
A brief description of the procedure employed is outlined here: • Day 1: Cells were seeded at 15K cells/well in the middle 60 wells of 6×96 well Cellvis imaging plates • Day 2: Media was replaced with 90 μl of DMEM/F12 (+10% FBS/1% P/S) containing NucBlue Live and the cells were treated with 10 μl of compound (10× concentrated) in triplicate for 24 hours. • Day3: Treatment was removed and cells were incubated for 30 minutes with LysoTracker™ Deep Red dye. Cells were washed twice with media and immediately imaged on EVOS M7000 at ×20 (6 images per well, 30 minutes imaging time/plate). Images were analysed using Celleste Image analysis software.

[2] = tested on: primary culture of dopaminergic Tyrosine hydroxylase (TH)-positive neurons; assay: Cellular model of Parkinson's disease (MPTP/MPP+ injury); format: cell-based, rat
From the text: This model (run by Neuro-Sys SAS, France) is based on a primary culture of dopaminergic Tyrosine hydroxylase (TH)-positive neurons injured with the dopaminergic neurons-specific toxin (DA-toxin) 1-methyl-4-phenyl-1,2,3,6 tetrahydropyridine (MPTP, a prodrug of MPP^+) (Dauer and Przedborski, 2003). Any substances reducing DA-toxin neurotoxicity may be useful as a new therapeutic agent for the treatment or prevention of PD.
Primary culture of mesencephalic neurons: Rat dopaminergic neurons were cultured as described by Visanji et al., 2008 and Callizot et al., 2019. Briefly, pregnant female rat (Wistar) of 15 days of gestation were killed using a deep anesthesia with CO2 chamber and a cervical dislocation. The midbrains obtained from 15-day-old rat embryos (Janvier, France) were dissected under a microscope. The embryonic midbrains will be removed and placed in ice-cold medium of Leibovitz (L15) containing 2% of Penicillin-Streptomycin (PS) and 1% of bovine serum albumin (BSA). The ventral portion of the mesencephalic flexure, a region of the developing brain rich in dopaminergic neurons, was used for the cell preparations.
The midbrains were dissociated by trypsinisation for 20 min at 37° C. (solution at a final concentration of 0.05% trypsin and 0.02% EDTA). The reaction was stopped by the addition of Dulbecco's modified Eagle's medium (DMEM) containing DNAase I grade II (0.5 mg/mL) and 10% of foetal calf serum (FCS). Cells were then mechanically dissociated by 3 passages through a 10 ml pipette. Cells were then centrifuged at 180×g for 10 min at +4° C. on a layer of BSA (3.5%) in L15 medium. The supernatant was discarded, and the cell pellets re-suspended in a defined culture medium consisting of Neurobasal supplemented with B27 (2%), L-glutamine (2 mM) and 2% of PS solution and 10 ng/mL of Brain-derived neurotrophic factor (BDNF) and 1 ng/ml of Glial-Derived Neurotrophic Factor (GDNF). Viable cells were counted in a Neubauer cytometer using the trypan blue exclusion test. The cells were seeded at a density of 40,000 cells/well in 96 well-plates (pre-coated with poly-L-lysine) and maintained in a humidified incubator at 37° C. in 5% CO2/95% air atmosphere. Half of the medium was changed every 2 days with fresh medium. The wells of first and last lines and columns […] (to avoid any edge effect) and were be filled with sterile water.
• i) Pre-incubation. On day 6 of culture, the test compounds were dissolved in PBS or DMSO and incubated for 1 hour before the MPTP exposure. • ii) Injury. One hour after the application of test compound, MPTP was added to a final concentration of 4 μM, diluted in control medium still in presence of compounds/inhibitors for 48 h. Test compounds were tested on one culture in 96-well plate (n=6 culture wells per condition).
Immunostaining: TH and α-Synuclein. 48 Hours after intoxication, the cell culture supernatant was removed, and the cells were fixed by a solution of 4% paraformaldehyde in PBS, pH=7.3 for 20 min at room temperature. The cells were washed twice in PBS, and then permeabilized. Non-specific sites were blocked with a solution of PBS containing 0.1% of saponin and 1% FCS for 15 min at room temperature. The cultures were incubated with: (a) monoclonal anti-Tyrosine Hydroxylase (TH) antibody produced in mouse at dilution of 1/10000 in PBS containing 1% FCS, 0.1% saponin, for 2 hours at room temperature, and (b) polyclonal anti-alpha synuclein (α-synuclein) antibody produced in rabbit at dilution of 1/200 in PBS containing 1% FCS, 0.1% saponin, for 2 h at room temperature.
Automatic computer analysis. For each condition, 20 pictures (representing the whole well area) were automatically taken using ImageXpress® (Molecular Devices) at 10× magnification (20 pictures, for TH and α-synuclein into TH neurons) using the same acquisition parameters. From images, analyses was directly and automatically performed by MetaXpress® (Molecular Devices). […]

| SMILES | activation at 0.8 µM [1] [%] | Fold change in acidic vesicle formation at compound concentration of 0.8 μM (SH-SY5Y cells) [fold] | Fold change in acidic vesicle formation at compound concentration of 10 μM (SH-SY5Y cells) [fold] | other results |
| --- | --- | --- | --- | --- |
| CCN1CCC(N(C(=O)c2csc(-c3cnn(-c4ccccc4)c3)n2)C(C)C)CC1 [Compound 218, N-(1-ethylpiperidin-4-yl)-2-(1-phenyl-1H-pyrazol-4-yl)-N-(propan-2-yl)-1,3-thiazole-4-carboxamide] | 30 to 50 | 1.6 | 4.8 |  |
| C[C@H]1CN(C(=O)c2cc(-c3cnn(-c4ccccc4)c3)c[nH]2)CCN1 [Compound 3, (3S)-3-methyl-1-[4-(1-phenyl-1H-pyrazol-4-yl)-1H-pyrrole-2-carbonyl]piperazine] |  | 1.6 | 3.5 |  |
| CCN1CCC(N(C)C(=O)c2cc(-c3cnn(-c4ccccc4)c3)c[nH]2)CC1 [Compound 256, N-(1-ethylpiperidin-4-yl)-N-methyl-4-(1-phenyl-1H-pyrazol-4-yl)-1H-pyrrole-2-carboxamide] | 30 to 50 | 1.8 | 2.7 |  |
| C[C@H]1CN(C(=O)c2csc(-c3cnn(-c4ccccc4)n3)n2)CCN1 [Compound 238, (3S)-3-methyl-1-[2-(2-phenyl-2H-1,2,3-triazol-4-yl)-1,3-thiazole-4-carbonyl]piperazine] |  | 2.1 | 2.9 |  |
| CCN1CCC(NC(=O)c2cc(-c3cnn(-c4ccccc4)c3)c[nH]2)CC1 [Compound 257, N-(1-ethylpiperidin-4-yl)-4-(1-phenyl-1H-pyrazol-4-yl)-1H-pyrrole-2-carboxamide] | 50 to 100 | 1.9 | 2.6 |  |
| CC(C)(C)N1CCC(NC(=O)c2csc(-c3cnn(-c4ccccc4)c3)n2)CC1 [Compound 248, N-(1-tert-butylpiperidin-4-yl)-2-(1-phenyl-1H-pyrazol-4-yl)-1,3-thiazole-4-carboxamide] |  | 2.2 | 1.9 |  |
| O=C(O)C1CCCN1C(=O)c1csc(-c2cnn(-c3ccccc3)c2)n1 (centres unmarked) [Compound 144, 1-[2-(1-phenyl-1H-pyrazol-4-yl)-1,3-thiazole-4-carbonyl]pyrrolidine-2-carboxylic acid] |  |  |  | effects in the in vitro model of PD based on MPP+ injury [2]: positive effects; increase in the number of dopaminergic TH positive neurons ([2]; 100 nM, compared to MPTP injury alone): 25%; decrease in α-syn area per dopaminergic TH positive neuron ([2]; 1 μM, 500 nM and 100 nM, compared to MPP+ injury alone): > 15% |
| O=C(NCCN1CCOCC1)c1csc(-c2cnn(-c3ccccc3)c2)n1 [Compound 204, N-[2-(morpholin-4-yl)ethyl]-2-(1-phenyl-1H-pyrazol-4-yl)-1,3-thiazole-4-carboxamide] | 10 to 30 |  |  |  |
| CN(C(=O)c1csc(-c2cnn(-c3ccccc3)c2)n1)C1CCN(C(C)(C)C)CC1 [Compound 239, N-(1-tert-butylpiperidin-4-yl)-N-methyl-2-(1-phenyl-1H-pyrazol-4-yl)-1,3-thiazole-4-carboxamide] | 10 to 30 |  |  |  |
| CCN1CCC(NC(=O)c2csc(-c3cnn(-c4cccnc4)c3)n2)CC1 [Compound 225, N-(1-ethylpiperidin-4-yl)-2-[1-(pyridin-3-yl)-1H-pyrazol-4-yl]-1,3-thiazole-4-carboxamide] | 10 to 30 |  |  |  |
| NS(=O)(=O)N1CCN(C(=O)c2ccc(-c3cnn(-c4ccccc4C(F)(F)F)c3)[nH]2)CC1 [Compound 216, 4-(5-{1-[2-(trifluoromethyl)phenyl]-1H-pyrazol-4-yl}-1H-pyrrole-2-carbonyl)piperazine-1-sulfonamide] | 10 to 30 |  |  |  |
| CCN1CCC(N(CC)C(=O)c2csc(-c3cnn(-c4ccccc4)c3)n2)CC1 [Compound 219, N-ethyl-N-(1-ethylpiperidin-4-yl)-2-(1-phenyl-1H-pyrazol-4-yl)-1,3-thiazole-4-carboxamide] | > 100 |  |  |  |
| CCN1CCC(NC(=O)c2cc(-c3nnc(-c4ccccc4)s3)cs2)CC1 [Compound 259, N-(1-ethylpiperidin-4-yl)-4-(5-phenyl-1,3,4-thiadiazol-2-yl)thiophene-2-carboxamide] | 10 to 30 | 2.3 | 3.6 | acidic vesicle formation relative to a DMSO-treated control [1]: only a slight increase |
| C[C@H]1CN(C(=O)c2csc(-c3cnn(-c4ccncc4)c3)n2)CCN1 [Compound 226, (3S)-3-methyl-1-{2-[1-(pyridin-4-yl)-1H-pyrazol-4-yl]-1,3-thiazole-4-carbonyl}piperazine] |  |  |  | acidic vesicle formation relative to a DMSO-treated control [1]: only a slight increase |
| CN1CCC[C@H](NC(=O)c2csc(-c3cnn(-c4ccccc4)c3)n2)C1 [Compound 208, N-[(3S)-1-methylpiperidin-3-yl]-2-(1-phenyl-1H-pyrazol-4-yl)-1,3-thiazole-4-carboxamide] | 10 to 30 |  |  |  |
